Test results from US20080194585A1, “Fungicidal Pyrazine Derivatives” (priority 2005, published 2008).
Marks after values point to notes of the source that are not given here.

Assays:
Plasmopara viticola = assay: Test D: grape downy mildew, spray after inoculation of grape seedlings; format: in vivo
Excerpt: Upon removal, disease ratings were made. […] A dash (-) indicates no test results.

Phytophthora infestans = assay: whole plant or invertebrate; format: in vivo
[1] = system: Puccinia recondita f. sp. tritici; assay: Test K: wheat leaf rust, preventive spray on wheat seedlings
Botrytis cinerea = assay: Test E: tomato botrytis, preventive spray on tomato seedlings
Septoria nodorum = assay: Test H: wheat glum blotch, preventive spray on wheat seedlings
Protocol: (the causal agent of wheat glum blotch) and incubated in a saturated atmosphere at 20° C. for 48 h, and then moved to a growth chamber at 22° C. for 5 days, after which disease ratings were made.

[2] = system: Erysiphe graminis f. sp. tritici; assay: Test L: wheat powdery mildew, preventive spray on wheat seedlings
Septoria tritici = assay: Test J: wheat leaf blotch, preventive spray on wheat seedlings; format: in vivo; conditions: 40 ppm (marked *); 100 = 100% disease control, 0 = no control
Excerpt: A dash (-) indicates no test results.

Pythium aphanidermatum = assay: Test A: bluegrass pythium blight, preventive spray on bluegrass seedlings; conditions: 100 = 100% disease control
Rhizoctonia oryzae = assay: Test G: turf brown patch, preventive spray on creeping bent grass seedlings; conditions: 100 = 100% disease control, 0 = no control
Protocol: (the causal agent of turf brown patch) and incubated in a saturated atmosphere at 27° C. for 24 h, and then moved to a growth chamber at 27° C. for 5 days, after which disease ratings were made.

[3] = system: Colletotrichum orbiculare; assay: Test B: cucumber Colletotrichum anthracnose, preventive spray on cucumber seedlings; conditions: 100 = 100% disease control
fusarium graminearium = assay: Test I: wheat head scab, preventive spray on wheat seedlings; conditions: 200 ppm; 100 = 100% disease control, 0 = no control relative to controls
Protocol: (the causal agent of wheat head scab) and incubated in a saturated atmosphere at 20° C. for 72 h, and then moved to a growth chamber at 22° C. for 5 days, after which disease ratings were made.

[4] = 40 ppm (marked *), 100 = 100% disease control, 0 = no control
[5] = 40 ppm (marked *), 0 = no control
[6] = 200 ppm, 100 = 100% disease control, 0 = no control relative to controls
[7] = 200 ppm, 0 = no control relative to controls

Compound	Test D disease control rating (Plasmopara viticola; [4])	Test F disease control rating (Phytophthora infestans; [4])	Test J disease control rating (Septoria tritici)	Test K disease control rating [1, 4]	Test E disease control rating (Botrytis cinerea; [4])	Test H disease control rating (Septoria nodorum; [4])	Test L disease control rating [2, 4]	Test A disease control rating (Pythium aphanidermatum; [5])	Test G disease control rating (Rhizoctonia oryzae; 40 ppm (marked *))	Test B disease control rating [3, 5]	other results
CC(C)Cn1c(-c2ccc(C(F)(F)F)cc2)c(Cl)nc(-n2cccn2)c1=O [compound 36]											Test D disease control rating (Plasmopara viticola; 200 ppm): 0%; Test F disease control rating (Phytophthora infestans; 200 ppm): 0%; Test K disease control rating ([1]; 200 ppm): 0%; Test E disease control rating (Botrytis cinerea; 200 ppm): 0%; Test H disease control rating (Septoria nodorum; 200 ppm): 0%; Test L disease control rating ([2]; 200 ppm): 0%
COc1ccc(-c2c(Cl)nc(-n3cccn3)c(=O)n2CC(C)C)cc1 [compound 37]											Test D disease control rating (Plasmopara viticola; 200 ppm): 0%; Test F disease control rating (Phytophthora infestans; 200 ppm): 0%; Test K disease control rating ([1]; 200 ppm): 89%; Test E disease control rating (Botrytis cinerea; 200 ppm): 100%; Test H disease control rating (Septoria nodorum; 200 ppm): 100%; Test L disease control rating ([2]; 200 ppm): 0%
CC(C)Cn1c(-c2ccc(OC(F)(F)F)cc2)c(Cl)nc(-n2cccn2)c1=O [compound 38]											Test D disease control rating (Plasmopara viticola; 200 ppm): 0%; Test F disease control rating (Phytophthora infestans; 200 ppm): 0%; Test K disease control rating ([1]; 200 ppm): 0%; Test E disease control rating (Botrytis cinerea; 200 ppm): 0%; Test H disease control rating (Septoria nodorum; 200 ppm): 0%; Test L disease control rating ([2]; 200 ppm): 0%
O=c1c(-n2cccn2)nc(Cl)c(-c2c(F)cccc2F)n1Cc1ccccc1F [compound 336]	0* %	0* %	100* %	100* %	99* %	99* %	98* %	0* %	41* %	0* %	
Cc1ccn(-c2nc(Cl)c(-c3c(F)cc(F)cc3F)n(-c3ccccc3F)c2=O)n1 [compound 355]	0* %	0* %	100* %	99* %	99* %	100* %	57* %	0* %	66* %	99* %	
Cc1ccn(-c2nc(Cl)c(-c3c(F)cc(F)cc3F)n(-c3cccc(F)c3)c2=O)n1 [compound 356]	0* %	0* %	100* %	100* %	100* %	100* %	100* %	0* %	93* %	99* %	
Cc1ccn(-c2nc(Cl)c(-c3c(F)ccc(F)c3F)n(-c3ccccc3)c2=O)n1 [compound 358]	0* %		100* %	100* %	99* %	100* %	91* %	0* %	92* %	0* %	
O=c1c(-n2cccn2)nc(Cl)c(-c2c(F)cc(F)cc2F)n1-c1ccc(F)c(F)c1 [compound 365]	16* %	0* %	100* %	100* %	98* %	100* %	96* %	0* %	99* %	99* %	
Cc1ccn(-c2nc(Cl)c(-c3c(F)cc(F)cc3F)n(-c3ccc(F)c(F)c3)c2=O)n1 [compound 366]	0* %	0* %	96* %	100* %	99* %	100* %	93* %	0* %	89* %	99* %	
O=c1c(-n2cccn2)nc(Cl)c(-c2c(F)cc(F)cc2F)n1-c1cc(F)cc(F)c1 [compound 367]	0* %	0* %	99* %	100* %	99* %	100* %	99* %	0* %	99* %	100* %	
Cc1ccn(-c2nc(Cl)c(-c3c(F)cc(F)cc3F)n(-c3cc(F)cc(F)c3)c2=O)n1 [compound 368]	0* %	0* %	100* %	100* %	99* %	100* %	99* %	0* %	99* %	99* %	
O=c1c(-n2cccn2)nc(Cl)c(-c2c(F)cc(F)cc2F)n1-c1cccc(F)c1F [compound 369]	0* %	0* %	100* %	100* %	99* %	100* %	98* %	0* %	99* %	100* %	
Cc1ccn(-c2nc(Cl)c(-c3c(F)cc(F)cc3F)n(-c3cccc(F)c3F)c2=O)n1 [compound 370]	0* %	0* %	100* %	100* %	99* %	100* %	96* %	0* %	92* %	100* %	
O=c1c(-n2cccn2)nc(Cl)c(-c2c(F)cc(F)cc2F)n1-c1ccc(Cl)cc1 [compound 371]	0* %	0* %	100* %	100* %	99* %	100* %	98* %	0* %	99* %	99* %	
Cc1ccn(-c2nc(Cl)c(-c3c(F)cc(F)cc3F)n(-c3ccc(Cl)cc3)c2=O)n1 [compound 372]	0* %	0* %	100* %	100* %	99* %	100* %		0* %		100* %	Test L disease control rating ([2]; 200 ppm, 100 = 100% disease control, 0 = no control): 98%; Test G disease control rating (Rhizoctonia oryzae; 200 ppm): 82%
C#CCNC(=O)c1nc(Cl)c(-c2c(F)cc(F)cc2F)n(CC(C)CC)c1=O (centres unmarked) [compound 416]											Test I disease control rating (fusarium graminearium): 0%; Test K disease control rating [1, 6]: 100%; Test E disease control rating (Botrytis cinerea; [6]): 99%; Test H disease control rating (Septoria nodorum; [6]): 100%; Test L disease control rating [2, 6]: 99%; Test B disease control rating [3, 7]: 99%
NC(=O)c1nc(Cl)c(-c2c(F)ccc(F)c2F)n(-c2ccccc2)c1=O [compound 419]				100* %	97* %	94* %	0* %		0* %		Test D disease control rating (Plasmopara viticola; [6]): 32%; Test F disease control rating (Phytophthora infestans; [6]): 95%; Test I disease control rating (fusarium graminearium): 73%; Test A disease control rating (Pythium aphanidermatum; [7]): 100%
NC(=O)c1nc(Cl)c(-c2c(F)cc(F)cc2F)n(-c2ccccc2)c1=O [compound 420]				100* %	94* %	96* %	41* %		0* %		Test D disease control rating (Plasmopara viticola; [6]): 31%; Test F disease control rating (Phytophthora infestans; [6]): 100%; Test I disease control rating (fusarium graminearium): 60%; Test A disease control rating (Pythium aphanidermatum; [7]): 98%
